These results are taken from patent publication US9650616B2, “Methods for increasing grain yield” (University of Florida Research Foundation, Inc., priority 2014, dated 2017).

Numbering of substitutions follows the chain as printed. Where two headings read alike, the source gives them in different places.

The target in assay [1] is T1, maize endosperm AGPase, large subunit variant RGRR (Q96R, D161G, A443R, S444R; numbering of SEQ ID NO: 20) (Zea mays, UniProt P55241+Q84PF5, A443R/D161G/Q96R/S444R).
T1 sequence (P55241 46-516 A443R/D161G/Q96R/S444R): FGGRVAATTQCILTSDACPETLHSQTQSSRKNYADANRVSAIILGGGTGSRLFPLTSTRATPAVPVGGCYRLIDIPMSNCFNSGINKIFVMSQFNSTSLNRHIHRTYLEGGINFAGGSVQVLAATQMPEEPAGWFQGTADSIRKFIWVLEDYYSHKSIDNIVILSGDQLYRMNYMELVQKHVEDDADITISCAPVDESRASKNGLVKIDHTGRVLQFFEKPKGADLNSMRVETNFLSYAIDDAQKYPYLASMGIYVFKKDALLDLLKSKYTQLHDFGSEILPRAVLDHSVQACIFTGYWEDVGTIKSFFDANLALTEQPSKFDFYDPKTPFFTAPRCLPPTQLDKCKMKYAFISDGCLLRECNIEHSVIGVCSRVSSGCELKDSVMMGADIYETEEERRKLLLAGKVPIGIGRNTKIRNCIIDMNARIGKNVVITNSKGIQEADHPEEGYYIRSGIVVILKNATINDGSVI
T1 sequence (Q84PF5 1-474): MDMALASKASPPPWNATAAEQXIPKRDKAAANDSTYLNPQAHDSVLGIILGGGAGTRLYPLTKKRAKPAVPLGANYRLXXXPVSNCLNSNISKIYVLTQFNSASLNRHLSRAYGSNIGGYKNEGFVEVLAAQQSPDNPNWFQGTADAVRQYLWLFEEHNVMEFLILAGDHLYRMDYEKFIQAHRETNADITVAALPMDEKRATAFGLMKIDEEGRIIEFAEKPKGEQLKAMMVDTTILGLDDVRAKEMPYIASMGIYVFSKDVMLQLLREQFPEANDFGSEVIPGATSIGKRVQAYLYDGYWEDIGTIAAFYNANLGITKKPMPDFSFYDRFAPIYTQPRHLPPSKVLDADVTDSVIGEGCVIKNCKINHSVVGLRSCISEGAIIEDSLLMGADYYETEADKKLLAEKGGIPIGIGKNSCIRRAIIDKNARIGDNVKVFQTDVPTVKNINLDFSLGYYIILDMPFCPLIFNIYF
Put plainly: Apparent kinetic constants with 3-PGA, 37° C., RGRR. The assay is classed as biochemical. To be noted: read-out: ATP Km. The source says:
The small and large subunit plasmids of maize endosperm AGPase (pMONcBt2 and pMONcSh2, respectively) (Giroux et al., 1996) were expressed in E. coli AC70R1-504 cells (Iglesias et al., 1993) as previously described (Boehlein et al., 2008).
(§1) An endpoint assay was used to determine the rate of the AGPase reaction by coupling the formation of PPi to a decrease in NADH concentration (Boehlein et al., 2008). […] The Michaelis constants (Km) were obtained by varying one substrate in the presence of saturating concentrations of the second substrate. The activation constants were obtained by varying the activator at fixed levels of both substrates. All reactions were performed at 37° C. and mixes were prewarmed before starting the reaction with enzyme. […] The absorbance at 340 nm was monitored after 30 min and the amount of PPi produced was determined from a standard curve using PPi in complete reaction mixtures lacking AGPase. Blank samples contained complete reaction mixtures without enzyme and the change in absorbance between the blank and the reaction was used to calculate the amount of PPi produced. […]
(§2) The apparent Michaelis constant and maximum velocity of each reaction was calculated from a V vs. S plots using nonlinear regression analysis and the following equation, v=VmaxS/(Km+S), where v is the measured velocity, Vmax is the maximum velocity, S is the substrate concentration. […]

For assay [2], the target named is T2, maize endosperm AGPase, evolutionary mutant SH2-E (Zea mays, UniProt P55241+Q84PF5).
T2 construct: data of Boehlein et al., 2013
As to the kind of experiment: Apparent kinetic constants with 3-PGA, 37° C., SH2-E. The assay is classed as biochemical. To be noted: read-out: ATP Km. As to the method: as §1, §2
Each mutant, comprising 1, 2, 3 or 4 changes, was grown in a large scale culture, expressed and purified according to standard procedures (Boehlein et al., 2005). […] Next, the activation constant, Ka, was determined for each of the mutant enzymes. […]

In assay [3] the target is T2, maize endosperm AGPase, evolutionary mutant SH2-E. Conditions: cited from earlier work.
The target of assay [4] is T3, maize endosperm AGPase variant T142F (Zea mays, UniProt P55241+Q84PF5, T142F).
T3 construct: data of Boehlein et al., 2013
T3 sequence (P55241 46-516 T142F): T1 sequence (P55241 46-516 A443R/D161G/Q96R/S444R) with R51Q, T97F, G116D, R398A, R399S
T3 sequence (Q84PF5 1-474): T1 sequence (Q84PF5 1-474)
To be noted: cited from earlier work.

The mark [5] stands for this setting: read-out: ATP Km, absence of 3-PGA.
The mark [6] stands for this setting: read-out: Kia (dissociation constant for the E-ATP complex), absence of 3-PGA.

T2 sequence (P55241 46-516, change not shown, one chain of several): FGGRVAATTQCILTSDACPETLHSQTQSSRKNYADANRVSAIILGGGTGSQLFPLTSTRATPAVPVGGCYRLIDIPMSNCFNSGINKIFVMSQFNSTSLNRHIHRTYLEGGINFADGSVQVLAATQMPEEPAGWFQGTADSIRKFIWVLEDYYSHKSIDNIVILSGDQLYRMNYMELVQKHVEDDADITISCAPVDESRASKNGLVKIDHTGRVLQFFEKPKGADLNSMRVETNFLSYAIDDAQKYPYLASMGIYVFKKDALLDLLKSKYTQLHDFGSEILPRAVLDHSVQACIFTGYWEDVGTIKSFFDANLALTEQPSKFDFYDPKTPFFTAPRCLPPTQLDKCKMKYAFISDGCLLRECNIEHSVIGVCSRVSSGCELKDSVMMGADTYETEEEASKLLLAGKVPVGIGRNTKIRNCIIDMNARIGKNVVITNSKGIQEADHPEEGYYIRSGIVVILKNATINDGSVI

For the molecule `Nc1ncnc2c1ncn2[C@@H]1O[C@H](COP(=O)(O)OP(=O)(O)OP(=O)(O)O)[C@@H](O)[C@H]1O` [ATP], the Km in assay [1] is 38 µM; in assay [2], 100 µM; in assay [3] (setting [5]), 2530 µM; in assay [4] (setting [5]), 1730 µM. The results for the kcat in assay [3] (absence of 3-PGA) and in assay [4] (absence of 3-PGA) were 67.6 s⁻¹ and 53.8 s⁻¹, respectively. Besides, the values for the Kd in assay [3] (setting [6]) and in assay [4] (setting [6]) were 5.4 mM and 1.5 mM, respectively.
